# Test results from the OPERA property sets (Mansouri et al. 2018).
smiles,measurement,setting,value
CCCCCCCCOC(=O)c1ccc(O)cc1,solubility,30 °C,0.0599 mM
c1ccc2c(c1)Nc1ccc3ccccc3c1S2,solubility,20 °C,0.000267 mM
COc1cc(C(C)=O)ccc1O,solubility,20 °C,30.1 mM
CC(C=NO)=NO,solubility,26 °C,451 mM
CCOC(=O)CO[N+](=O)[O-],solubility,30 °C,19.4 mM
OCc1cccc(CO)c1,solubility,25 °C,585 mM
Cc1ccc(S(N)(=O)=O)cc1N,solubility,24 °C,12.1 mM
O=C1OCc2ccc(I)cc21,solubility,25 °C,0.615 mM
O=C(O)c1ccc2ncccc2c1,solubility,25 °C,900 mM
COc1c(C(=O)O)cc(C(=O)O)cc1C(=O)O,solubility,20 °C,29.1 mM
COCc1ccccc1,solubility,20 °C,24.6 mM
NC(=O)Nc1ccc(Br)cc1,solubility,25 °C,23.2 mM
CC=Cc1ccc(OCC(=O)O)c(OC)c1,solubility,,26.1 mM
CCCCCCCOC(=O)c1cccnc1,solubility,25 °C,1.81 mM
CCC(O)CCC(C)C (configuration not stated),solubility,25 °C,11.8 mM
CCC(CC)(C(N)=O)C(N)=O,solubility,,63.2 mM
CC[C@@H]1C(=O)O[C@H]1C,solubility,20 °C,216 mM
O=C(Cc1ccccc1)c1ccc(O)cc1,solubility,,31.6 mM
O=c1ccc(Br)cc(Br)c1O,solubility,25 °C,0.314 mM
CC(=O)N[C@@H](CSc1ccc(Cl)c(Cl)c1)C(=O)O,solubility,20 °C,1.3 mM
CC=C(CCCC)C(N)=O,solubility,20 °C,42.5 mM
Cc1cnnc2c(O)cccc12,solubility,20 °C,2.1 mM
O=CCCCCCCCC(=O)O,solubility,20 °C,110 mM
CCCOP(=O)(OCC)OCCC,solubility,25 °C,105 mM
O=C(O)/C=C/CBr,solubility,,182 mM
O=S(=O)(c1ccccc1)N1CCCCC1,solubility,20 °C,2.91 mM
CCCCCCCCCCCCCCCCNC(=O)C(C)O (configuration not stated),solubility,25 °C,0.223 mM
Cc1cccc(I)c1O,solubility,25 °C,14.5 mM
CC(C)C[C@H](NC=O)C(=O)O (racemic),solubility,25 °C,185 mM
NC(CC(=O)O)c1cccc2ccccc12 (configuration not stated),solubility,,25.7 mM
C=CCc1ccc(O)c(O)c1,solubility,26 °C,166 mM
O=S(CCCl)CCCl,solubility,20 °C,68.5 mM
O=C1Cc2c(ccc3ccccc23)O1,solubility,,1.96 mM
Cc1ccc(O)c(CO)c1,solubility,20 °C,485 mM
COC(=O)c1cc(O)c(OC)c(O)c1,solubility,20 °C,25.2 mM
O=C(OC1CCNCC1)c1ccccc1,solubility,,48.7 mM
COc1c(C(=O)O)oc2ccccc12,solubility,20 °C,1.3 mM
O=C1CC(c2ccccc2)CC(=O)C1[N+](=O)[O-] (configuration not stated),solubility,20 °C,21.4 mM
Cc1cccc(CO)c1,solubility,25 °C,409 mM
CCC(Br)(Br)C(=O)O,solubility,,134 mM
CCCCC(CCC(=O)O)CC(=O)O (configuration not stated),solubility,20 °C,40 mM
CC(C)Cc1ncc[nH]1,solubility,20 °C,89.4 mM
